In patent US10463669B2, “Composition for treating or preventing liver cancer” (Seoul National University R&DB Foundation, priority 2016, dated 2019):

Tests used:
[1] = tested on: PI3K isotype p110δ expression in HCC cells; details: HCC cells after treatment with H2O2
Protocol: Medium was exchanged every day, and the aforementioned cells were cultured for 4 days in 300 μmol/L hydrogen peroxide (H2O2) (Sigma Aldrich; H1009). In several experiments, the cells were treated for 1 hour with 5 mmol/L N-acetylcysteine (NAC) (Sigma Aldrich; A7250), 25 μmol/L idelalisib (LC Laboratoties, Woburn, Mass., USA; I-7447), 25 μmol/L perifosine (LC Laboratoties, Woburn, Mass., USA; P-6522), or 30 μmol/L GSK3β inhibitor (GSK3β inhibitor XI) (Santa Cruz; sc-204770) (31) before adding H2O2. Furthermore, sterilized distilled water (pH 7.0) was used as a negative control (i.e., mock treatment).
PCR was carried out by using TOPrealm qPCR 2×PreMIX (SYBR Green with high ROX) (Enzynomics, Daejeon, Korea; RT501M) and ABI Prism 7300 thermal cycler (Applied Biosystems, Foster City, Calif., USA). […] To examine the primer specificity, a dissociation step was additionally included.

Hep3B cells = assay: Cell proliferation / cell viability, MTS assay; format: cell-based; details: Homo sapiens, treated for 96 hours
Protocol: (§1) HCC cell lines (Huh7 and Hep3B) were obtained from Korean Cell Line Bank (KCLB, Seoul, Korea). THLE-3 cell line (immortalized human liver […] cell line produced by infection with SV40 large T antigen) was obtained from ATCC (American Type Culture Collection). Cell line authentication by KCLB and ATCC was carried out by using DNA fingerprinting as a short tandem repeat analysis. All cell lines were tested for mycoplasma contamination. HCC cells were cultured in DMEM (Welgene, Gyeongsan-si, Korea) medium complemented with 10% fetal bovine serum (GenDepot, Barker, Tex., USA) in a humidified 5% CO2 incubator at 37° C. As it has been recommended by the ATCC manual, THLE-3 cells were cultured in BEGM (Lonza) medium complemented with 10% fetal bovine serum in a humidified 5% CO2 incubator at 37° C.
(§2) As it has been described before (10), the cell viability was measured by using Cell Titer 96 MTS (Promega). Cells were sewn in an amount of 500 to 1000 cells per well, and then treated for 96 hours at a pharmaceutical concentration as described in each graph. Each analysis was repeated 3 times at least. After plotting the data, IC50 values were obtained by using GraphPad software. By using Flexstation 3 multimode plate reader (Molecular Devices), optical density showing formazan production was measured at 490 nm. […]

Huh7 cells = assay: Cell proliferation / cell viability, MTS assay; format: cell-based; details: Homo sapiens, Huh-7, treated for 96 hours
Protocol: as §1, §2

[2] = tested on: telomerase activity in HCC cell lines (Huh7 and Hep3B); assay: Telomerase activity, TRAP assay; format: cell-based, human
Protocol: (§3) To have quantitative determination of the telomerase activity, TRAP assay was carried out by using TRAPEZE® RT Telomerase Detection Kit (Millipore, Darmstadt, Germany; […]). According to the manual, the whole protein extract (100 ng) was used for each reaction.

[3] = tested on: telomerase activity in THLE-3 cells; assay: Telomerase activity, TRAP assay; format: cell-based, human; details: 150 μmol/L H2O2-treated THLE-3 cells
Protocol: as §3

Structure (SMILES) | p110δ expression (only isotype among p110α, p110β, p110δ, p110γ) [1] | IC50 (Hep3B cells) [µM] | IC50 (Huh7 cells) [µM] | telomerase activity ([2]; 300 μmol/L H2O2-treated HCC cell lines) | ROS-mediated increase in telomerase activity ([2]; H2O2-treated cells) | telomerase activity [3]
OO [H2O2, hydrogen peroxide] | increased |  |  |  |  | 
CC[C@H](Nc1ncnc2nc[nH]c12)c1nc2cccc(F)c2c(=O)n1-c1ccccc1 [idelalisib, 5-fluoro-3-phenyl-2-[(1S)-1-(7H-purin-6-ylamino)propyl]-4(3H)-quinazolinone] |  | < 30 | < 30 | reduced | almost completely inhibited | not
